# From the NIST ThermoML archive (doi:10.1021/je801006q)
# ± gives the expanded uncertainty stated by the source.
# Experiments:
# [1] = xn = mol fraction of the nth substance listed; settings: 101 kPa, Liquid
# [2] = excess molar enthalpy (molar enthalpy of mixing); xn = mol fraction of the nth substance listed; settings: 298.15 K, 101 kPa, Liquid, Calvet calorimetry
structure (smiles),measurement,setting,value
O=C1CCCN1 [2-pyrrolidinone] + CC(C)(C)O,mass density,"[1]; 293.15 K, x1 = 0.0786",806.96 ± 0.48 kg/m3
same,viscosity,"[1]; 293.15 K, x1 = 0.0786",4.778 ± 0.42 mPa·s
same,mass density,"[1]; 293.15 K, x1 = 0.1832",836.27 ± 0.44 kg/m3
same,viscosity,"[1]; 293.15 K, x1 = 0.1832",3.931 ± 0.35 mPa·s
same,mass density,"[1]; 293.15 K, x1 = 0.2489",855.32 ± 0.42 kg/m3
same,viscosity,"[1]; 293.15 K, x1 = 0.2489",3.399 ± 0.3 mPa·s
same,mass density,"[1]; 293.15 K, x1 = 0.3105",873.59 ± 0.4 kg/m3
same,viscosity,"[1]; 293.15 K, x1 = 0.3105",2.824 ± 0.25 mPa·s
same,mass density,"[1]; 293.15 K, x1 = 0.3875",897.03 ± 0.38 kg/m3
same,viscosity,"[1]; 293.15 K, x1 = 0.3875",2.167 ± 0.2 mPa·s
same,mass density,"[1]; 293.15 K, x1 = 0.4556",918.3 ± 0.36 kg/m3
same,viscosity,"[1]; 293.15 K, x1 = 0.4556",1.857 ± 0.17 mPa·s
same,mass density,"[1]; 293.15 K, x1 = 0.5003",932.55 ± 0.35 kg/m3
same,viscosity,"[1]; 293.15 K, x1 = 0.5003",1.665 ± 0.16 mPa·s
same,mass density,"[1]; 293.15 K, x1 = 0.5734",956.36 ± 0.33 kg/m3
same,viscosity,"[1]; 293.15 K, x1 = 0.5734",1.87 ± 0.17 mPa·s
same,mass density,"[1]; 293.15 K, x1 = 0.6544",983.51 ± 0.31 kg/m3
same,viscosity,"[1]; 293.15 K, x1 = 0.6544",2.478 ± 0.23 mPa·s
same,mass density,"[1]; 293.15 K, x1 = 0.7236",1007.36 ± 0.32 kg/m3
same,viscosity,"[1]; 293.15 K, x1 = 0.7236",3.648 ± 0.32 mPa·s
same,mass density,"[1]; 293.15 K, x1 = 0.7995",1034.28 ± 0.38 kg/m3
same,viscosity,"[1]; 293.15 K, x1 = 0.7995",5.671 ± 0.48 mPa·s
same,mass density,"[1]; 293.15 K, x1 = 0.8672",1059.06 ± 0.44 kg/m3
same,viscosity,"[1]; 293.15 K, x1 = 0.8672",8.035 ± 0.62 mPa·s
same,mass density,"[1]; 293.15 K, x1 = 0.9237",1080.26 ± 0.49 kg/m3
same,viscosity,"[1]; 293.15 K, x1 = 0.9237",10.94 ± 0.8 mPa·s
same,mass density,"[1]; 293.15 K, x1 = 0.9823",1102.87 ± 0.54 kg/m3
same,viscosity,"[1]; 293.15 K, x1 = 0.9823",14.34 ± 1 mPa·s
same,mass density,"[1]; 298.15 K, x1 = 0.0786",802 ± 0.48 kg/m3
same,viscosity,"[1]; 298.15 K, x1 = 0.0786",3.771 ± 0.33 mPa·s
same,mass density,"[1]; 298.15 K, x1 = 0.1832",831.45 ± 0.45 kg/m3
same,viscosity,"[1]; 298.15 K, x1 = 0.1832",3.23 ± 0.29 mPa·s
same,mass density,"[1]; 298.15 K, x1 = 0.2489",850.57 ± 0.43 kg/m3
same,viscosity,"[1]; 298.15 K, x1 = 0.2489",2.698 ± 0.24 mPa·s
same,mass density,"[1]; 298.15 K, x1 = 0.3105",868.94 ± 0.41 kg/m3
same,viscosity,"[1]; 298.15 K, x1 = 0.3105",2.109 ± 0.19 mPa·s
same,mass density,"[1]; 298.15 K, x1 = 0.3875",892.52 ± 0.39 kg/m3
same,viscosity,"[1]; 298.15 K, x1 = 0.3875",1.547 ± 0.15 mPa·s
same,mass density,"[1]; 298.15 K, x1 = 0.4556",913.93 ± 0.37 kg/m3
same,viscosity,"[1]; 298.15 K, x1 = 0.4556",1.333 ± 0.13 mPa·s
same,mass density,"[1]; 298.15 K, x1 = 0.5003",928.28 ± 0.36 kg/m3
same,mass density,"[1]; 298.15 K, x1 = 0.5734",952.27 ± 0.34 kg/m3
same,viscosity,"[1]; 298.15 K, x1 = 0.5734",1.496 ± 0.14 mPa·s
same,mass density,"[1]; 298.15 K, x1 = 0.6544",979.59 ± 0.32 kg/m3
same,viscosity,"[1]; 298.15 K, x1 = 0.6544",2.049 ± 0.19 mPa·s
same,mass density,"[1]; 298.15 K, x1 = 0.7236",1003.63 ± 0.31 kg/m3
same,viscosity,"[1]; 298.15 K, x1 = 0.7236",3.252 ± 0.29 mPa·s
same,mass density,"[1]; 298.15 K, x1 = 0.7995",1030.79 ± 0.37 kg/m3
same,viscosity,"[1]; 298.15 K, x1 = 0.7995",5.011 ± 0.43 mPa·s
same,mass density,"[1]; 298.15 K, x1 = 0.8672",1055.73 ± 0.43 kg/m3
same,viscosity,"[1]; 298.15 K, x1 = 0.8672",7.463 ± 0.59 mPa·s
same,mass density,"[1]; 298.15 K, x1 = 0.9237",1077.13 ± 0.48 kg/m3
same,viscosity,"[1]; 298.15 K, x1 = 0.9237",9.609 ± 0.72 mPa·s
same,mass density,"[1]; 298.15 K, x1 = 0.9823",1099.95 ± 0.54 kg/m3
same,viscosity,"[1]; 298.15 K, x1 = 0.9823",12.12 ± 0.88 mPa·s
same,mass density,"[1]; 303.15 K, x1 = 0.0786",797.13 ± 0.49 kg/m3
same,viscosity,"[1]; 303.15 K, x1 = 0.0786",3.586 ± 0.32 mPa·s
same,mass density,"[1]; 303.15 K, x1 = 0.1832",826.69 ± 0.46 kg/m3
same,viscosity,"[1]; 303.15 K, x1 = 0.1832",2.732 ± 0.25 mPa·s
same,mass density,"[1]; 303.15 K, x1 = 0.2489",845.86 ± 0.44 kg/m3
same,viscosity,"[1]; 303.15 K, x1 = 0.2489",2.053 ± 0.19 mPa·s
same,mass density,"[1]; 303.15 K, x1 = 0.3105",864.29 ± 0.42 kg/m3
same,viscosity,"[1]; 303.15 K, x1 = 0.3105",1.481 ± 0.14 mPa·s
same,mass density,"[1]; 303.15 K, x1 = 0.3875",887.93 ± 0.39 kg/m3
same,viscosity,"[1]; 303.15 K, x1 = 0.3875",0.786 ± 0.08 mPa·s
same,mass density,"[1]; 303.15 K, x1 = 0.4556",909.39 ± 0.37 kg/m3
same,viscosity,"[1]; 303.15 K, x1 = 0.4556",0.464 ± 0.053 mPa·s
same,mass density,"[1]; 303.15 K, x1 = 0.5003",923.8 ± 0.36 kg/m3
same,mass density,"[1]; 303.15 K, x1 = 0.5734",947.87 ± 0.34 kg/m3
same,mass density,"[1]; 303.15 K, x1 = 0.6544",975.32 ± 0.32 kg/m3
same,viscosity,"[1]; 303.15 K, x1 = 0.6544",1.049 ± 0.1 mPa·s
same,mass density,"[1]; 303.15 K, x1 = 0.7236",999.49 ± 0.31 kg/m3
same,viscosity,"[1]; 303.15 K, x1 = 0.7236",2.12 ± 0.19 mPa·s
same,mass density,"[1]; 303.15 K, x1 = 0.7995",1026.74 ± 0.36 kg/m3
same,viscosity,"[1]; 303.15 K, x1 = 0.7995",3.681 ± 0.33 mPa·s
same,mass density,"[1]; 303.15 K, x1 = 0.8672",1051.83 ± 0.42 kg/m3
same,viscosity,"[1]; 303.15 K, x1 = 0.8672",5.849 ± 0.49 mPa·s
same,mass density,"[1]; 303.15 K, x1 = 0.9237",1073.37 ± 0.48 kg/m3
same,viscosity,"[1]; 303.15 K, x1 = 0.9237",8.042 ± 0.62 mPa·s
same,mass density,"[1]; 303.15 K, x1 = 0.9823",1096.31 ± 0.53 kg/m3
same,viscosity,"[1]; 303.15 K, x1 = 0.9823",9.894 ± 0.74 mPa·s
same,excess molar enthalpy,[2]; x1 = 0.0498,0.0345 ± 0.000813 kcal/mol
same,excess molar enthalpy,[2]; x1 = 0.1189,0.0582 ± 0.00131 kcal/mol
same,excess molar enthalpy,[2]; x1 = 0.1932,0.077 ± 0.0017 kcal/mol
same,excess molar enthalpy,[2]; x1 = 0.2551,0.0902 ± 0.00198 kcal/mol
same,excess molar enthalpy,[2]; x1 = 0.3309,0.102 ± 0.00222 kcal/mol
same,excess molar enthalpy,[2]; x1 = 0.3946,0.106 ± 0.00232 kcal/mol
same,excess molar enthalpy,[2]; x1 = 0.4411,0.106 ± 0.00232 kcal/mol
same,excess molar enthalpy,[2]; x1 = 0.4943,0.103 ± 0.00225 kcal/mol
same,excess molar enthalpy,[2]; x1 = 0.5766,0.0947 ± 0.00208 kcal/mol
same,excess molar enthalpy,[2]; x1 = 0.6806,0.081 ± 0.00179 kcal/mol
same,excess molar enthalpy,[2]; x1 = 0.7422,0.0687 ± 0.00153 kcal/mol
same,excess molar enthalpy,[2]; x1 = 0.8435,0.0413 ± 0.000956 kcal/mol
same,excess molar enthalpy,[2]; x1 = 0.9312,0.0257 ± 0.000621 kcal/mol
